Source: ChEMBL document CHEMBL1150023, “Design and syntheses of 4-acylaminopyridine derivatives: Novel high affinity choline uptake enhancers II” (Bioorg Med Chem Lett, 1995)

How the values were obtained:
Format in all cases: functional, organism-based
Details in all cases: Hippocampus
[1] = species: Rattus norvegicus; assay: Effect on the uptake amount of [3H]choline in the hippocampal synaptosomes of AF64A-treated rats at 10e-5 M
[2] = species: Rattus norvegicus; assay: Effect on the uptake amount of [3H]choline in the hippocampal synaptosomes of AF64A-treated rats at 10e-6 M
[3] = species: Rattus norvegicus; assay: Effect on the uptake amount of [3H]choline in the hippocampal synaptosomes of AF64A-treated rats at 10e-7 M

Row | Compound | HACU improvement [1] [%] | HACU improvement [2] [%] | HACU improvement [3] [%]
1 | CCCC(=O)Nc1c2c(nc3scc(C)c13)CCCC2 | 1 | 3 | 7
2 | CCCC(=O)Nc1c2c(nc3cccc(F)c13)CCCC2 | 3 | 2 | 9
3 | CCCC(=O)Nc1c2c(nc3ccsc13)CCCC2 | 15 | 4 | 7
4 | CCCC(=O)Nc1c2c(nc3ccccc13)C=CCC2 | -7 | 8 | 14
5 | O=C(CN1CCCC1=O)Nc1c2c(nc3ccccc13)CCCC2 | 14 | 17 | 15
6 | CCCC(=O)Nc1c2c(nc3oc(C)c(C)c13)CCCC2 | 38 | 20 | 13
7 | CCCC(=O)Nc1c2c(nc3ccccc13)CCCC2 | 28 | 24 | 13
8 | CCCC(=O)Nc1c2c(nc3ccccc13)CCC(C)(C)C2 | 1 | 3 | -11
9 | CCCC(=O)Nc1c2c(nc3ccccc13)CCN(S(=O)(=O)c1ccccc1)C2 | 5 | 10 | 26
10 | CCCC(=O)Nc1c2c(nc3ccccc13)CCN(C)C2 | 19 | 9 | 13
11 | CCCC(=O)Nc1c2c(nc3ccccc13)C1CCC2CC1 | -3 | -6 | 5
12 | CCCC(=O)Nc1c2c(nc3ccccc13)CCC(O)C2 (stereo not drawn) | 10 | 16 | 13
13 | CCCC(=O)Nc1c2c(nc3ccccc13)CCN(C(=O)c1ccccc1)C2 | -7 | 0 | 7
14 | CCCC(=O)Nc1c2c(nc3cc(F)ccc13)CCCC2 | -15 | 3 | -1
15 | CCCC(=O)Nc1c2c(nc3ncccc13)CCCC2 | 13 | 10 | 15
16 | CNCC(=O)Nc1c2c(nc3oc(C)c(C)c13)CCCC2 | 3 | 10 | 14

Row | Compound | HACU improvement [1] [%] | HACU improvement [2] [%] | HACU improvement [3] [%]
17 | CCCC(=O)Nc1c2c(nc3oc(C)nc13)CCCC2 | 18 | 2 | 4
18 | CCCC(=O)Nc1c2c(nc3ccc(F)cc13)CCCC2 | 7 | -5 | 2
19 | CCCC(=O)Nc1c2c(nc3ccccc13)C(C)CCC2 (stereo not drawn) | 16 | 17 | 10
20 | Cc1oc2nc3c(c(NC(=O)CN4CCCC4=O)c2c1C)CCCC3 | 64 | 72 | 55
21 | Cc1oc2nc3c(c(NC(=O)Cn4ccnc4)c2c1C)CCCC3 | 3 | 4 | 5
22 | CCCC(=O)Nc1c2c(nc3ccccc13)CCC1(CC1)C2 | 12 | 19 | 3
23 | CCCC(=O)Nc1c2c(nc3ccccc13)CCC(C)C2 (stereo not drawn) | 6 | -16 | -6
24 | CCCC(=O)Nc1c2c(nc3ccccc13)C1CCN2CC1 | 10 | 7 | 7
25 | CCCC(=O)Nc1c2c(nc3ccccc13)CCC(=O)C2 | 14 | 14 | 14
26 | CCCC(=O)Nc1c2c(nc3ccccc13)CCC(c1ccccc1)C2 (stereo not drawn) | -6 | -7 | -1
27 | CCCC(=O)Nc1c2c(nc3cccc(C)c13)CCCC2 | 10 | -4 | -2
28 | Cc1oc2nc3c(c(NC(=O)CN4CC(=O)NC4=O)c2c1C)CCCC3 | 16 | 12 | 5
29 | CCCC(=O)Nc1c2c(nc3sccc13)CCCC2 | 12 | 1 | 1
30 | CCCC(=O)Nc1c2c(nc3sc(C)c(C)c13)CCCC2 | 20 | 11 | 4
31 | CCCC(=O)Nc1c2c(nc3ccccc13)CCN(Cc1ccccc1)C2 | 21 | 11 | 10
